According to ChEMBL document CHEMBL4616632, “Discovery of Cyclic Boronic Acid QPX7728, an Ultrabroad-Spectrum Inhibitor of Serine and Metallo-β-lactamases” (J Med Chem, 2020):

System: Klebsiella pneumoniae
Test: Inhibition of Klebsiella pneumoniae KP1009 CTX-M-15 assessed as minimum concentration of compound required to reduce the MIC of aztreonam to 4 ug/ml
Details: not given

Row | MEC [µg/mL] | Structure (SMILES)
1 | 20 | COc1ccc2c(c1C(=O)O)OB(O)[C@@H](CCO)C2
2 | 10 | COc1ccc2c(c1C(=O)O)OB(O)C1CCC21 (stereo unspecified)
3 | 2.5 | O=C(O)c1nccc2c1OB(O)[C@@H]1C[C@H]21
4 | < 0.3 | COc1ccc2c(c1C(=O)O)OB(O)[C@@H](NC(=O)CSC)C2

System: Escherichia coli
Test: Inhibition of Escherichia coli KP308 SHV-5 assessed as minimum concentration of compound required to reduce the MIC of aztreonam to 4 ug/ml
Details: not given

Row | MEC [µg/mL] | Structure (SMILES)
5 | 20 | COc1ccc2c(c1C(=O)O)OB(O)[C@@H](CCO)C2
6 | 10 | COc1ccc2c(c1C(=O)O)OB(O)C1CCC21 (stereo unspecified)
7 | 0.6 | O=C(O)c1nccc2c1OB(O)[C@@H]1C[C@H]21

System: Escherichia coli
Test: Inhibition of Escherichia coli EC302 TEM-10 assessed as minimum concentration of compound needed to reduce the MIC of aztreonam to 4 ug/ml
Details: not given

Row | MEC [µg/mL] | Structure (SMILES)
8 | > 20 | COc1ccc2c(c1C(=O)O)OB(O)[C@@H](CCO)C2
9 | 10 | COc1ccc2c(c1C(=O)O)OB(O)C1CCC21 (stereo unspecified)
10 | 0.3 | O=C(O)c1nccc2c1OB(O)[C@@H]1C[C@H]21
11 | < 0.3 | COc1ccc2c(c1C(=O)O)OB(O)[C@@H](NC(=O)CSC)C2

Molecular target: Beta-lactamase (Klebsiella pneumoniae) (UniProt Q93LQ9)
Sequence (Q93LQ9 as listed by the source): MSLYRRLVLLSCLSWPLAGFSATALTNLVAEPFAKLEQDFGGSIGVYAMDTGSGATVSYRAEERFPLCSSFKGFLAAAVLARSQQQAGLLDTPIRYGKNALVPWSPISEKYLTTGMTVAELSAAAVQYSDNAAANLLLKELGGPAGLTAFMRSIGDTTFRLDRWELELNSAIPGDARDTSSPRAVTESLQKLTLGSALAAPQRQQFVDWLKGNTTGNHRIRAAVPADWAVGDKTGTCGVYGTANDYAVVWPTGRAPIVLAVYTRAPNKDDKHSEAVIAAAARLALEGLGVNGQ
Test: Inhibition of Klebsiella pneumoniae KP1004 KPC-2 assessed as minimum concentration of compound needed to reduce the MIC of aztreonam to 4 ug/ml
Details: not given

Row | MEC [µg/mL] | Structure (SMILES)
12 | 5 | COc1ccc2c(c1C(=O)O)OB(O)[C@@H](CCO)C2
13 | 5 | COc1ccc2c(c1C(=O)O)OB(O)C1CCC21 (stereo unspecified)
14 | 0.6 | O=C(O)c1nccc2c1OB(O)[C@@H]1C[C@H]21
15 | < 0.3 | COc1ccc2c(c1C(=O)O)OB(O)[C@@H](NC(=O)CSC)C2

System: Enterobacter cloacae
Test: Inhibition of Enterobacter cloacae ECL1002 AmpC assessed as minimum concentration of compound needed to reduce the MIC of aztreonam to 4 ug/ml
Details: not given

Row | MEC [µg/mL] | Structure (SMILES)
16 | 10 | COc1ccc2c(c1C(=O)O)OB(O)[C@@H](CCO)C2
17 | 10 | COc1ccc2c(c1C(=O)O)OB(O)C1CCC21 (stereo unspecified)
18 | 5 | O=C(O)c1nccc2c1OB(O)[C@@H]1C[C@H]21
19 | 0.6 | COc1ccc2c(c1C(=O)O)OB(O)[C@@H](NC(=O)CSC)C2

System: Klebsiella pneumoniae
Test: Inhibition of Klebsiella pneumoniae KP1081 NDM-1 assessed as minimum concentration of compound required to reduce the MIC of biapenem to 1 ug/ml
Details: not given

Row | MEC [µg/mL] | Structure (SMILES)
20 | 2.5 | COc1ccc2c(c1C(=O)O)OB(O)[C@@H](CCO)C2
21 | 10 | COc1ccc2c(c1C(=O)O)OB(O)C1CCC21 (stereo unspecified)
22 | 2.5 | O=C(O)c1nccc2c1OB(O)[C@@H]1C[C@H]21

System: Klebsiella pneumoniae
Test: Inhibition of Klebsiella pneumoniae KP1054 VIM-1 assessed as minimum concentration of compound required to reduce the MIC of biapenem to 1 ug/ml
Details: not given

Row | MEC [µg/mL] | Structure (SMILES)
23 | 2.5 | COc1ccc2c(c1C(=O)O)OB(O)[C@@H](CCO)C2
24 | 5 | COc1ccc2c(c1C(=O)O)OB(O)C1CCC21 (stereo unspecified)
25 | 0.3 | O=C(O)c1nccc2c1OB(O)[C@@H]1C[C@H]21

System: Pseudomonas aeruginosa
Test: Inhibition of Pseudomonas aeruginosa PAM 2035 AmpC assessed as minimum concentration of compound needed to reduce the MIC of aztreonam to 4 ug/ml
Details: not given

Row | MEC [µg/mL] | Structure (SMILES)
26 | 20 | COc1ccc2c(c1C(=O)O)OB(O)[C@@H](CCO)C2
27 | 10 | COc1ccc2c(c1C(=O)O)OB(O)C1CCC21 (stereo unspecified)
28 | 2.5 | O=C(O)c1nccc2c1OB(O)[C@@H]1C[C@H]21
29 | 20 | COc1ccc2c(c1C(=O)O)OB(O)[C@@H](NC(=O)CSC)C2

System: Klebsiella pneumoniae
Test: Inhibition of Klebsiella pneumoniae KP1160 IMP-26 assessed as minimum concentration of compound needed to reduce the MIC of meropenem to 1 ug/ml
Details: not given

Row | MEC [µg/mL] | Structure (SMILES)
30 | > 20 | COc1ccc2c(c1C(=O)O)OB(O)[C@@H](CCO)C2
31 | 20 | COc1ccc2c(c1C(=O)O)OB(O)C1CCC21 (stereo unspecified)
32 | > 20 | O=C(O)c1nccc2c1OB(O)[C@@H]1C[C@H]21

System: Escherichia coli
Test: Inhibition of Escherichia coli ECM6625 SHV-5 assessed as minimum concentration of compound needed to reduce the MIC of aztreonam to 4 ug/ml
Details: not given

Row | MEC [µg/mL] | Structure (SMILES)
33 | 20 | COc1ccc2c(c1C(=O)O)OB(O)[C@@H](CCO)C2
34 | 10 | COc1ccc2c(c1C(=O)O)OB(O)C1CCC21 (stereo unspecified)
35 | 0.6 | O=C(O)c1nccc2c1OB(O)[C@@H]1C[C@H]21

System: Escherichia coli
Test: Inhibition of Escherichia coli ECM6619 TEM-10 assessed as minimum concentration of compound needed to reduce the MIC of aztreonam to 4 ug/ml
Details: not given

Row | MEC [µg/mL] | Structure (SMILES)
36 | > 20 | COc1ccc2c(c1C(=O)O)OB(O)[C@@H](CCO)C2
37 | 10 | COc1ccc2c(c1C(=O)O)OB(O)C1CCC21 (stereo unspecified)
38 | 0.3 | O=C(O)c1nccc2c1OB(O)[C@@H]1C[C@H]21

System: Acinetobacter baumannii
Test: Inhibition of Acinetobacter baumannii AB1053 OXA-72 assessed as minimum concentration of compound needed to reduce the MIC of meropenem to 8 ug/ml
Details: not given

Row | MEC [µg/mL] | Structure (SMILES)
39 | 10 | COc1ccc2c(c1C(=O)O)OB(O)[C@@H](CCO)C2
40 | 5 | COc1ccc2c(c1C(=O)O)OB(O)C1CCC21 (stereo unspecified)
41 | 0.3 | O=C(O)c1nccc2c1OB(O)[C@@H]1C[C@H]21

Molecular target: Beta-lactamase OXA-23 (Acinetobacter baumannii) (UniProt Q9L4P2)
Sequence (Q9L4P2 whole entry): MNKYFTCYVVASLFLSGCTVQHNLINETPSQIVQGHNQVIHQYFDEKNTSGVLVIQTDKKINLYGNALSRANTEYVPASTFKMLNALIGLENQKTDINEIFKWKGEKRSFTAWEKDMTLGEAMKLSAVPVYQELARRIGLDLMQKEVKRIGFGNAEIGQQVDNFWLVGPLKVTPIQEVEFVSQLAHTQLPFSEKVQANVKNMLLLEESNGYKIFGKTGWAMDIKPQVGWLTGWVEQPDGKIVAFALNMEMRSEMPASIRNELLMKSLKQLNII
Test: Inhibition of Acinetobacter baumannii AB1054 OXA-23 assessed as minimum concentration of compound needed to reduce the MIC of meropenem to 8 ug/ml
Details: not given

Row | MEC [µg/mL] | Structure (SMILES)
42 | 10 | COc1ccc2c(c1C(=O)O)OB(O)[C@@H](CCO)C2
43 | 10 | COc1ccc2c(c1C(=O)O)OB(O)C1CCC21 (stereo unspecified)
44 | 1.25 | O=C(O)c1nccc2c1OB(O)[C@@H]1C[C@H]21

System: not listed separately
Test: Oral bioavailability in rat at 50 to 75 mg/kg by HPLC/MS analysis
Assay type: ADME, organism-based
Details: in vivo

Row | bioavailability [%] | Structure (SMILES)
45 | 94 | COc1ccc2c(c1C(=O)OCOC(=O)OC(C)C)OB(O)[C@@H](Sc1nncs1)C2
46 | 100 | COc1ccc2c(c1C(=O)OCOC(=O)C(C)C)OB(O)[C@@H](Sc1nncs1)C2
47 | 64 | CCOC(=O)OCOC(=O)c1c(OC)ccc2c1OB(O)[C@@H](Sc1nncs1)C2
48 | 52 | COc1ccc2c(c1C(=O)OCOC(C)=O)OB(O)[C@@H](Sc1nncs1)C2
49 | 100 | COc1ccc2c(c1C(=O)OCOC(=O)C(C)(C)C)OB(O)[C@@H](Sc1nncs1)C2

System: Escherichia coli
Test: Inhibition of Escherichia coli EC308 SHV-5 assessed as minimum concentration of compound needed to reduce the MIC of aztreonam to 4 ug/ml
Details: not given

Row | MEC [µg/mL] | Structure (SMILES)
50 | < 0.3 | COc1ccc2c(c1C(=O)O)OB(O)[C@@H](NC(=O)CSC)C2

System: Pseudomonas aeruginosa
Test: Inhibition of Pseudomonas aeruginosa PAM 1032 KPC-2 assessed as minimum potentiating concentration of compound needed to reduce the MIC of biapenem by 64 fold
Details: not given

Row | Activity [µg/mL] | Structure (SMILES)
51 | 40 | COc1ccc2c(c1C(=O)O)OB(O)[C@@H](NC(=O)Cc1cccs1)C2
52 | 5 | COc1ccc2c(c1C(=O)O)OB(O)[C@@H](NC(=O)CSC1CNC1)C2
53 | 5 | O=C(CSC1CNC1)N[C@H]1Cc2ccc(F)c(C(=O)O)c2OB1O
54 | 40 | O=C(Cc1cccs1)N[C@H]1Cc2ccc(F)c(C(=O)O)c2OB1O
55 | 2.5 | O=C(CSC1CNC1)N[C@H]1Cc2cccc(C(=O)O)c2OB1O
56 | 80 | O=C(Cc1cccs1)N[C@H]1Cc2cccc(C(=O)O)c2OB1O
57 | 10 | COc1ccc2c(c1C(=O)O)OB(O)[C@@H](NC(=O)CSC)C2

System: Pseudomonas aeruginosa
Test: Inhibition of Pseudomonas aeruginosa PAM 1154 KPC-2 assessed as assessed as minimum potentiating concentration of compound needed to reduce the MIC of biapenem by 64 fold
Details: not given

Row | Activity [µg/mL] | Structure (SMILES)
58 | 5 | COc1ccc2c(c1C(=O)O)OB(O)[C@@H](NC(=O)Cc1cccs1)C2
59 | 5 | COc1ccc2c(c1C(=O)O)OB(O)[C@@H](NC(=O)CSC1CNC1)C2
60 | 5 | O=C(CSC1CNC1)N[C@H]1Cc2ccc(F)c(C(=O)O)c2OB1O
61 | 10 | O=C(Cc1cccs1)N[C@H]1Cc2ccc(F)c(C(=O)O)c2OB1O
62 | 2.5 | O=C(CSC1CNC1)N[C@H]1Cc2cccc(C(=O)O)c2OB1O
63 | 2.5 | O=C(Cc1cccs1)N[C@H]1Cc2cccc(C(=O)O)c2OB1O
64 | 5 | COc1ccc2c(c1C(=O)O)OB(O)[C@@H](NC(=O)CSC)C2

System: not listed separately
Test: Ratio of inhibition of Pseudomonas aeruginosa PAM 1032 KPC-2 assessed as minimum potentiating concentration of compound needed to reduce the MIC of biapenem by 64 fold to inhibition of Pseudomonas aeruginosa PAM 1154 KPC-2 assessed as assessed as minimum potentiating concentration of compound needed to reduce the MIC of biapenem by 64 fold
Details: not given

Row | Ratio | Structure (SMILES)
65 | 8 | COc1ccc2c(c1C(=O)O)OB(O)[C@@H](NC(=O)Cc1cccs1)C2
66 | 1 | COc1ccc2c(c1C(=O)O)OB(O)[C@@H](NC(=O)CSC1CNC1)C2
67 | 1 | O=C(CSC1CNC1)N[C@H]1Cc2ccc(F)c(C(=O)O)c2OB1O
68 | 4 | O=C(Cc1cccs1)N[C@H]1Cc2ccc(F)c(C(=O)O)c2OB1O
69 | 1 | O=C(CSC1CNC1)N[C@H]1Cc2cccc(C(=O)O)c2OB1O
70 | 32 | O=C(Cc1cccs1)N[C@H]1Cc2cccc(C(=O)O)c2OB1O
71 | 2 | COc1ccc2c(c1C(=O)O)OB(O)[C@@H](NC(=O)CSC)C2
